The values below come from ChEMBL document CHEMBL3526064, “Sequential metabolism of AMG 487, a novel CXCR3 antagonist, results in formation of quinone reactive metabolites that covalently modify CYP3A4 Cys239 and cause time-dependent inhibition of the enzyme” (Drug Metab Dispos, 2012).

Data set [1] addresses T1, Cytochrome P450 3A4 (Homo sapiens, UniProt P08684). The experiment in a line: Drug metabolism assessed as recombinant CYP3A4 (unknown origin)-compound formation treated with (R)-N-(1-(3-(4-hydroxyphenyl)-4-oxo-3,4-dihydropyrido[2,3-d]pyrimidin-2-yl)ethyl)-N-([2-3H]pyridin-3-ylmethyl)-2-(4-(trifluoromethoxy)phenyl)acetamide preincubated for 5 mins followed NADPH addition measured after 45 mins by TIC mass chromatographic analysis. The conditions noted are these: recombinant enzyme, 0.75 h. The data set is classed as ADME.

Data set [2] concerns the target T1, Cytochrome P450 3A4. Description: Drug metabolism assessed as recombinant CYP3A4 (unknown origin)-mediated compound formation treated with [3H]-(R)-N-(1-(3-(4-hydroxyphenyl)-4-oxo-3,4-dihydropyrido[2,3-d]pyrimidin-2-yl)ethyl)-N-(pyridin-3-ylmethyl)-2-(4-(trifluoromethoxy)phenyl)acetamide preincubated for 5 mins followed NADPH addition measured after 45 mins by TIC mass chromatographic analysis in presence of GSH. The data set is classed as ADME. The conditions noted are these: recombinant enzyme, 0.75 h.

In data set [3] the target is T1, Cytochrome P450 3A4. Description: Ratio of Kinact to Ki for CYP3A4 in human liver microsomes using midazolam as substrate. Type of data set: ADME.
In data set [4] the target is T1, Cytochrome P450 3A4. Description: Time dependent inhibition of CYP3A4 in human liver microsomes using testosterone as substrate preincubated for 30 mins followed by 10-fold dilution and substrate addition by LC-MS/MS analysis. The data set is classed as ADME. (Liver microsomes are vesicles of endoplasmic reticulum, rich in cytochrome P450 enzymes.)
Data set [5] addresses T1, Cytochrome P450 3A4. Description: Inhibition of CYP3A4 in human liver microsomes using midazolam as substrate assessed as unbound inhibitor concentration required for half maximal enzyme inactivation after 2 to 10 mins by LC-MS/MS analysis. The data set is classed as ADME.
Data set [6] has as its target T1, Cytochrome P450 3A4. The experiment in a line: Time dependent inhibition of CYP3A4 in human liver microsomes using midazolam as substrate preincubated for 30 mins followed by 10-fold dilution and substrate addition by LC-MS/MS analysis. The data set is classed as ADME.
Data set [7] has as its target T1, Cytochrome P450 3A4. Description: Inhibition of CYP3A4 in human liver microsomes using testosterone as substrate assessed as unbound inhibitor concentration required for half maximal enzyme inactivation after 2 to 10 mins by LC-MS/MS analysis. The data set is classed as ADME.
Data set [8] addresses T1, Cytochrome P450 3A4. The experiment in a line: (§1) Inhibition of CYP3A4 in human liver microsomes using midazolam as substrate assessed as residual enzyme activity after 2 to 10 mins by LC-MS/MS analysis. The data set is classed as ADME.
The target in data set [9] is T2, CYP3A4 (Homo sapiens, UniProt P08684). The data set is described as §1. The data set is classed as ADME. The conditions noted are these: human, liver microsomes, probe midazolam.
T2 sequence (P08684 whole entry): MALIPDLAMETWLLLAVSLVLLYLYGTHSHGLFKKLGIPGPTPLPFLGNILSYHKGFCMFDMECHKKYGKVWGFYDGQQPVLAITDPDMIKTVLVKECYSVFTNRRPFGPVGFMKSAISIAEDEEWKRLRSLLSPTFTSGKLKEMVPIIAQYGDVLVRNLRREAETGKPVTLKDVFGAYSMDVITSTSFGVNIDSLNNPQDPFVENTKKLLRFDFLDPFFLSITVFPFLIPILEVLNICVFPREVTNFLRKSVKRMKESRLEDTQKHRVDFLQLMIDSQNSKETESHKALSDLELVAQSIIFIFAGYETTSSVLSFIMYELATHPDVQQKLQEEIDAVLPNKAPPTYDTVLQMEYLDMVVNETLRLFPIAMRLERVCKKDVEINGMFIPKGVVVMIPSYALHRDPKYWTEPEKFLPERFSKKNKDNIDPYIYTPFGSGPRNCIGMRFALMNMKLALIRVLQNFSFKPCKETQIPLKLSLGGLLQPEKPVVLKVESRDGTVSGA
Data set [10] addresses T1, Cytochrome P450 3A4. The experiment in a line: Time dependent inhibition of CYP3A4 in human liver microsomes assessed as conversion of testosterone to 6beta-hydroxytestosterone 0.1 to 30 uM by LC-MS/MS analysis. The data set is classed as ADME.
Data set [11] addresses T2, CYP3A4. The experiment in a line: Ratio of IC50 for CYP3A4 in human liver microsomes using testosterone as substrate preincubated for 30 mins followed by 10-fold dilution and substrate addition to IC50 for CYP3A4 in human liver microsomes using testosterone as substrate preincubated for 30 mins followed by 10-fold dilution and substrate addition in presence of NADPH. The conditions noted are these: probe testosterone, read-out: Ratio IC50.

The target in data set [12] is T1, Cytochrome P450 3A4. Description: Ratio of Kinact to Ki for CYP3A4 in human liver microsomes using testosterone as substrate. Type of data set: ADME.
For data set [13], the target named is T2, CYP3A4. Description: Ratio of IC50 for CYP3A4 in human liver microsomes using midazolam as substrate preincubated for 30 mins followed by 10-fold dilution and substrate addition to IC50 for CYP3A4 in human liver microsomes using midazolam as substrate preincubated for 30 mins followed by 10-fold dilution and substrate addition in presence of NADPH. The settings on record: probe midazolam, read-out: Ratio IC50.

In data set [14] the target is T1, Cytochrome P450 3A4. The experiment in a line: Inactivation of recombinant CYP3A4 (unknown origin) using midazolam as substrate assessed as partition ratio up to 30 uM preincubated for 5 mins followed by dialysis measured after 4 hrs. Type of data set: ADME. The conditions noted are these: recombinant enzyme.
Data set [15] has as its target T1, Cytochrome P450 3A4. The experiment in a line: (§2) Inhibition of CYP3A4 in human liver microsomes using testosterone as substrate assessed as residual enzyme activity after 2 to 10 mins by LC-MS/MS analysis. The data set is classed as ADME.
Data set [16] concerns the target T2, CYP3A4. Described as §2. Type of data set: ADME. The conditions noted are these: human, liver microsomes, probe testosterone.
Data set [17] has as its target T1, Cytochrome P450 3A4. Description: Inactivation of recombinant CYP3A4 (unknown origin) using testosterone as substrate assessed as partition ratio up to 30 uM preincubated for 5 mins followed by dialysis measured after 4 hrs. The settings on record: recombinant enzyme. The data set is classed as ADME.
In data set [18] the target is T1, Cytochrome P450 3A4. Description: Time dependent inhibition of CYP3A4 in human liver microsomes using midazolam as substrate preincubated for 30 mins followed by 10-fold dilution and substrate addition by LC-MS/MS analysis in presence of NADPH. Type of data set: ADME.
Data set [19] deals with T1, Cytochrome P450 3A4. Description: Time dependent inhibition of CYP3A4 in human liver microsomes assessed as conversion of midazolam to 1'-hydroxymidazolam at 0.1 to 30 uM by LC-MS/MS analysis. Type of data set: ADME.
The target of data set [20] is T1, Cytochrome P450 3A4. Description: Time dependent inhibition of CYP3A4 in human liver microsomes using testosterone as substrate preincubated for 30 mins followed by 10-fold dilution and substrate addition by LC-MS/MS analysis in presence of NADPH. The data set is classed as ADME.
The target in data set [21] is T1, Cytochrome P450 3A4. The experiment in a line: Drug metabolism assessed as recombinant CYP3A4 (unknown origin)-mediated (R)-N-(1-(3-(3,4-dihydroxyphenyl)-4-oxo-3,4-dihydropyrido[2,3-d]pyrimidin-2-yl)ethyl)-N-(pyridin-3-ylmethyl)-2-(4-(trifluoromethoxy)phenyl)acetamide formation preincubated for 5 mins followed NADPH addition measured after 45 mins by TIC mass chromatographic analysis in presence of GSH. Type of data set: ADME. The conditions noted are these: recombinant enzyme, 0.75 h.

Data set [22] has as its target T1, Cytochrome P450 3A4. Description: Drug metabolism assessed as recombinant CYP3A4 (unknown origin)-mediated (R)-N-(1-(3-(2,4-dihydroxyphenyl)-4-oxo-3,4-dihydropyrido[2,3-d]pyrimidin-2-yl)ethyl)-N-(pyridin-3-ylmethyl)-2-(4-(trifluoromethoxy)phenyl)acetamide formation preincubated for 5 mins followed NADPH addition measured after 45 mins by TIC mass chromatographic analysis in presence of GSH. Type of data set: ADME. The settings on record: recombinant enzyme, 0.75 h.

Molecules are shown by their SMILES.

T1 sequence (P08684 whole entry): as above

As to `C[C@H](c1nc2ncccc2c(=O)n1-c1c(O)cc(O)cc1SC[C@H](NC(=O)[C@@H](N)CCC(=O)O)C(=O)NCC(=O)O)N(Cc1cccnc1)C(=O)Cc1ccc(OC(F)(F)F)cc1`, on Cytochrome P450 3A4 [1], the Drug metabolism result was “metabolite_detected”.

As to `CC(c1nc2ncccc2c(=O)n1-c1ccc(O)c(SC[C@H](NC(=O)[C@@H](N)CCC(=O)O)C(=O)NCC(=O)O)c1O)N(Cc1cccnc1)C(=O)Cc1ccc(OC(F)(F)F)cc1` (single isomer, unassigned), the Drug metabolism entry at Cytochrome P450 3A4 [1] is “metabolite_detected”.

As for `C[C@H](c1nc2ncccc2c(=O)n1-c1cc(SC[C@H](NC(=O)[C@@H](N)CCC(=O)O)C(=O)NCC(=O)O)c(O)cc1O)N(Cc1cccnc1)C(=O)Cc1ccc(OC(F)(F)F)cc1`, the Drug metabolism entry at Cytochrome P450 3A4 [1] was “metabolite_detected”.

In the case of `C[C@H](c1nc2ncccc2c(=O)n1-c1cc(O)c(O)cc1SC[C@H](NC(=O)[C@@H](N)CCC(=O)O)C(=O)NCC(=O)O)N(Cc1cccnc1)C(=O)Cc1ccc(OC(F)(F)F)cc1`, the Drug metabolism entry at Cytochrome P450 3A4 [1] is given as “metabolite_detected”.

Consider `C[C@H](c1nc2ncccc2c(=O)n1-c1ccc(O)cc1)N(Cc1ccc[n+]([O-])c1)C(=O)Cc1ccc(OC(F)(F)F)cc1`, for which the Drug metabolism result at Cytochrome P450 3A4 [2] was “metabolite_detected”.

On to `C[C@H](c1nc2ncccc2c(=O)n1-c1ccc(O)cc1)N(Cc1cccnc1)C(=O)Cc1ccc(OC(F)(F)F)cc1`, for which the Ratio worked out at 0.12 mL/min/nmol at Cytochrome P450 3A4 [3], 0.13 mL/min/nmol on Cytochrome P450 3A4 [12], 36 on Cytochrome P450 3A4 [14] and 36 on Cytochrome P450 3A4 [17]. The IC50 at Cytochrome P450 3A4 [4] is 2100 nM; at Cytochrome P450 3A4 [6] it was 650 nM; on Cytochrome P450 3A4 [18] it was 27 nM; on Cytochrome P450 3A4 [20], 68 nM. In addition, the Ki turned out to be 730 nM on Cytochrome P450 3A4 [5], 740 nM on Cytochrome P450 3A4 [7], 1900 nM on Cytochrome P450 3A4 [8] and 1900 nM at Cytochrome P450 3A4 [15]. Besides, the kinact was 0.00147 s⁻¹ on CYP3A4 [9] and 0.00165 s⁻¹ at CYP3A4 [16]. The “inhibition (INH)” value at Cytochrome P450 3A4 [10] and at Cytochrome P450 3A4 [19] was “Active” in each case. In addition, the IC50 shift at 30 min stood at 31 at CYP3A4 [11] and 24 on CYP3A4 [13].

In the case of `C[C@H](c1nc2ncccc2c(=O)n1-c1ccc(O)c(O)c1)N(Cc1cccnc1)C(=O)Cc1ccc(OC(F)(F)F)cc1`, at Cytochrome P450 3A4 [1], the Drug metabolism result is listed as “metabolite_detected”.

For the compound `[3H]c1ncccc1CN(C(=O)Cc1ccc(OC(F)(F)F)cc1)[C@H](C)c1nc2ncccc2c(=O)n1-c1ccc(O)cc1`, the Drug metabolism result at Cytochrome P450 3A4 [21] and on Cytochrome P450 3A4 [22] was “metabolite_detected” throughout.

Regarding `C[C@H](c1nc2ncccc2c(=O)n1-c1cc(O)c(O)c(SC[C@H](NC(=O)[C@@H](N)CCC(=O)O)C(=O)NCC(=O)O)c1)N(Cc1cccnc1)C(=O)Cc1ccc(OC(F)(F)F)cc1`, the Drug metabolism result at Cytochrome P450 3A4 [1] was “metabolite_detected”.

For `C[C@H](c1nc2ncccc2c(=O)n1-c1ccc(O)cc1O)N(Cc1cccnc1)C(=O)Cc1ccc(OC(F)(F)F)cc1`, the Drug metabolism result at Cytochrome P450 3A4 [1] was “metabolite_detected”.

For `CC(c1nc2ncccc2c(=O)n1-c1ccc(O)c(O)c1SC[C@H](NC(=O)[C@@H](N)CCC(=O)O)C(=O)NCC(=O)O)N(Cc1cccnc1)C(=O)Cc1ccc(OC(F)(F)F)cc1` (single isomer, unassigned), on Cytochrome P450 3A4 [1], the Drug metabolism entry is “metabolite_detected”.

In general, IC50 refers to the concentration that inhibits the measured activity by half. The term kinact denotes the rate constant of inactivation at saturating inhibitor.
